Results on seven compounds are retold here after US8263139B2 (Metaproteonics, LLC, priority 2005, dated 2012).

Experiment [1] has as its system 3T3-L1 adipocytes. Description: Lipogenesis in 3T3-L1 adipocytes (Oil Red O / BODIPY). In kind it is cell-based, murine.
Method: Prior to experiments, cells were cultured in DMEM containing 10% FBS-HI added 50 units penicillin/ml and 50 μg streptomycin/ml, and maintained in log phase prior to experimental setup. Cells were grown in a 5% CO2 humidified incubator at 37° C. Components of the pre-confluent medium included (1) 10% FBS/DMEM containing 4.5 g glucose/L; (2) 50 U/ml penicillin; and (3) 50 μg/ml streptomycin. Growth medium was made by adding 50 ml of heat inactivated FBS and 5 ml of penicillin/streptomycin to 500 ml DMEM. This medium was stored at 4° C. Before use, the medium was warmed to 37° C. in a water bath.
3T3-T1 cells were seeded at an initial density of 6×10^4 cells/cm^2 in 24-well plates. For two days, the cells were allowed grow to reach confluence. Following confluence, the cells were forced to differentiate into adipocytes by the addition of differentiation medium; this medium consisted of (1) 10% FBS/DMEM (high glucose); (2) 0.5 mM methylisobutylxanthine; (3) 0.5 μM dexamethasone and (4) 10 μg/ml insulin (MDI medium). After three days, the medium was changed to post-differentiation medium consisting of 10 μg/ml insulin in 10% FBS/DMEM.
Whenever fresh media were added, fresh test material was also added.
Monolayer cells were washed with PBS (phosphate buffered saline, Mediatech) and fixed with 10% formaldehyde for ten minutes. Fixed cells were stained with an Oil Red O working solution of three parts 0.6% Oil Red O/isopropanol stock solution and two parts water for one hour and the excess stain was washed once with water. The resulting stained oil droplets were extracted from the cells with isopropanol and quantified by spectrophotometric analysis at 540 nm (MEL312e BIO-KINETICS READER, Bio-Tek Instruments, Winooski, Vt.).
Briefly, media were removed and cells were washed once with non-sterile PBS. […] After 15 min on an orbital shaker (DS-500, VWR Scientific Products, South Plainfield, N.J.) at ambient temperature, the cells were washed with 100 μl PBS followed by the addition of 100 μl PBS for reading for spectrofluorometric determination of BODIPY incorporation into the cells. […]
The subject of experiment [2] is 3T3-L1 adipocytes. Description: Adiponectin secretion from TNFα-treated 3T3-L1 adipocytes. It is filed as cell-based, murine. To be noted: for Concentration eliciting maximum adiponectin secretion: of the doses tested.
Method: 3T3-L1 cells were seeded at an initial density of 1×10^4 cells/cm^2 in 96-well plates. For two days, the cells were allowed grow to reach confluence. Following confluence, the cells were forced to differentiate into adipocytes by the addition of differentiation medium; this medium consisted of (1) 10% FBS/DMEM (high glucose); (2) 0.5 mM methylisobutylxanthine; (3) 0.5 μM dexamethasone and (4) 10 μg/ml insulin (MDI medium). From Day 3 through Day 5, the medium was changed to post-differentiation medium consisting of 10% FBS in DMEM. […] On Day 6, the supernatant medium was sampled for adiponectin determination.
Statistical Calculations and Interpretation—All assays were preformed in duplicate. […] Differences among the doses and test agents were determined using the Student's t-test without correction for multiple comparisons; the nominal five percent probability of a type I error was selected.
Experiment [3] relates to 3T3-L1 adipocytes. Description: IL-6 secretion in LPS/3T3-L1 adipocytes. It is filed as cell-based, murine. To be noted: at the concentration of maximum inhibition, with 100 ng LPS/ml.
Experiment [4] relates to 3T3-L1 adipocytes. Description: Adiponectin secretion in LPS/3T3-L1 adipocytes. In kind it is cell-based, murine. The following applies: at the concentration of maximum stimulation; NS = not significantly different from the LPS control.
Experiment [5] can be described thus: Collagen induced rheumatoid arthritis murine model, arthritic index. In kind it is in vivo, mouse. The following applies: 10 mg/kg.
Method: The mice were injected intradermally on day 0 with a mixture containing 100 μg of type II collagen and 100 μg of Mycobacterium tuberculosis in squalene. A booster injection was repeated on day 21. Mice were examined on days 22-27 for arthritic signs with nonresponding mice removed from the study.
Arthritic symptomology was assessed (scored 0-4) for each paw using a arthritic index as described below. Under this arthritic index 0=no visible signs; 1=edema and/or erythema: single digit; 2=edema and or erythema: two joints; 3=edema and or erythema: more than two joints; and 4=severe arthritis of the entire paw and digits associated with ankylosis and deformity.

Marks after values point to notes of the source that are not given here.

With `CC(C)CCC1=C(O)C(C(=O)C(C)C)=C(O)C(CCC(C)C)(CCC(C)C)C1=O` [hexahydrocolupulone], the “adipogenic / lipogenic response compared with controls” value with 3T3-L1 adipocytes [1] was “failed to elicit a lipogenic response”.

Consider `COc1ccc2c(c1)c(CC(=O)O)c(C)n2C(=O)c1ccc(Cl)cc1` [indomethacin], for which the “Concentration eliciting maximum adiponectin secretion” value worked out at 1.25 µg/mL in the experiment with 3T3-L1 adipocytes [2] (2 ng TNFα/ml) and 5.0 µg/mL with 3T3-L1 adipocytes [2] (10 ng TNFα/ml). Further, the “% Inhibition (maximum inhibition of IL-6 secretion)” value in the experiment on 3T3-L1 adipocytes [3] is reported as 53* %. For the same compound, in the experiment on 3T3-L1 adipocytes [4], the “% Stimulation (maximum stimulation of adiponectin secretion)” value was determined as 9%.

On to `CCc1ccc(CCOc2ccc(CC3SC(=O)NC3=O)cc2)nc1` (centres unmarked) [pioglitazone], for which the “maximal adiponectin secretion, times the TNFα treatment” value in the experiment with 3T3-L1 adipocytes [2] (10 ng TNFα/ml) is given as 1.47. The “Concentration eliciting maximum adiponectin secretion over four doses” value in the experiment on 3T3-L1 adipocytes [2] (10 ng TNFα/ml, Acacia catechu #5669 fractions) was determined as 1.25 µg/mL.

In the case of `C[C@]12C=CC(=O)C=C1CC[C@@H]1[C@@H]2[C@@H](O)C[C@@]2(C)[C@H]1CC[C@]2(O)C(=O)CO` [prednisolone], the arthritic index entry in experiment [5] was “Significant reductions”.

Regarding `Cc1c(C)c2c(c(C)c1O)CCC(C)(COc1ccc(CC3SC(=O)NC3=O)cc1)O2` (centres unmarked) [troglitazone], the “Concentration eliciting maximum adiponectin secretion” value with 3T3-L1 adipocytes [2] (10 ng TNFα/ml) is 0.625 µg/mL.

As for `COc1cc(O)c(CC=C(C)C)c(O)c1C(=O)/C=C/c1ccc(O)cc1` [xanthohumol], the “adipogenic / lipogenic response compared with controls” value with 3T3-L1 adipocytes [1] is “comparable to indomethacin and troglitazone”.

On to Beta acids, for which the “adipogenic / lipogenic response compared with controls” value with 3T3-L1 adipocytes [1] is “comparable to indomethacin and troglitazone”.
